“Also recorded” adds a separate entry of the source.
What was measured:
α10β1 = assay: Overall recognition by α10β1 (I domain and C2C12-α10β1 cells, summary); details: abstract and discussion; I domain and/or C2C12-α10β1 cells
Experimental: I domain adhesion was determined colorimetrically, as described, here termed solid phase binding assay (SPBA). Peptides were coated at 10 μg/ml for 1 h at 22 °C on Immulon-2 HB 96-well plates (Thermo Life Sciences, Basingstoke, UK), and blocked for 1 h with 200 μl of TBS containing 50 mg/ml bovine serum albumin. Wells were washed four times with 200 μl of the adhesion buffer (TBS with 1 mg/ml bovine serum albumin) before adding 100 μl of adhesion buffer containing 10 μg/ml of recombinant GST I domains in the presence of either 2 mM MgCl2 or EDTA for 1 h at room temperature. Wells were washed five times with 200 μl of adhesion buffer containing MgCl2 or EDTA, before adding 100 μl of adhesion buffer containing the anti-GST-HRP conjugate at 1:10,000 dilution for 1 h at room temperature. After washing, colour was developed using an ImmunoPure TMB Substrate Kit (Pierce) according to the manufacturer's instructions.
(§1) The mouse myoblast cell line, C2C12, (control and transfectants, C2C12-α1β1, C2C12-α2β1, C2C12-α10β1 or C2C12-α11β1) was maintained in RPMI medium containing 10% fetal bovine serum, 2 mM glutamine, 100 IU/ml penicillin, 100 μg/ml streptomycin, and 2.5 μg/ml amphotericin. Cells were harvested by centrifugation, washed, and suspended at 0.5 × 10^6/ml in Tris-buffered saline supplemented with 5.5 mM glucose and either 2 mM EDTA or 2 mM MgCl2. SPBA was performed as follows: 100 μl of the cell suspension was added to peptide-coated wells [42] at 20 °C for 60 min. Cell adhesion was determined colorimetrically after lysis, using a lactate dehydrogenase (LDH)-based cell detection kit (Roche Diagnostics) according to the supplier's instructions.
(§2) To quantitate C2C12-α10β1 binding to collagen peptides, we used the impedance-based xCELLigence system (Acea) that allows label-free, dynamic monitoring of cell adhesion in real-time. The assay system expresses the adhesion-dependent rise in well impedance in units of cell index (CI), defined as (Rn − Rb) / 15; where Rn is the electrical impedance of each cell-containing well and Rb is the background impedance of the well with medium alone

C2C12-α10β1 cells [1] = assay: LDH-based SPBA of C2C12-α10β1 cell adhesion; set-up: species or system mouse; details: short THPs, 2 mM Mg^2 +, 1 h, Fig. 4B
Experimental: The mouse myoblast cell line, C2C12-α10β1 clone, expresses α10β1 as its sole collagen-binding integrin [16]. To investigate the binding of α10β1 to collagen in a cellular and whole integrin context, therefore, the adhesion of C2C12-α10β1 cells to Toolkits II and III was performed using two different approaches. First, SPBA was used, with lactate dehydrogenase to report the presence of adherent cells, after lysis, as described in Experimental. […] C2C12-α10B1 cells generally bound more prominently to those weaker peptides that supported just-observable binding of free I-domain. This may reflect avidity of the receptor-populated cell surface for the peptide-coated wells, or perhaps up-regulation of integrin affinity following receptor engagement. It is also possible that some cell binding reflects specific indirect interactions. For example, fibronectin, available either by intrinsic expression or from the serum supplement, binds well to II-44, and can also bind integrin αVβ3 [21].
Fig. 2 Binding of α10β1-transfected C2C12 cells to Collagen Toolkits. 96-well plates were coated with peptides as for Fig. 1, then C2C12-α10β1 cells (5 × 10^4 per well) were added and incubated for 1 h in the presence of either 2 mM MgCl2 or 2 mM EDTA as above. A: binding to Toolkit II. B: binding to Toolkit III.
as §1

α2β1 = tested on: α2β1; set-up: method as in 4 sources, ref [8], [10] = [8]; PMID 16326707; doi:10.1074/jbc.M509818200; 8 Raynal N. Hamaia S.W. Siljander P.R. Maddox B. Peachey A.R. Fernandez R. Foley L.J. Slatter D.A. Jarvis G.E. Farndale R.W. Use of synthetic peptides to locate novel integrin alpha2beta1-binding moti || [10]; PMID 16043429; doi:10.1074/jbc.M502431200; 10 Kim J.K. Xu Y. Xu X. Keene D.R. Gurusiddappa S. Liang X. Wary K.K. Hook M. A novel binding site in collagen type III for the integrins, alpha 1beta 1 and alpha 2beta 1 J. Biol. Chem. 280 2005 32512 ||| ref not given ||| ref [4] = [4]; PMID 19693543; doi:10.1007/s00441-009-0834-6; 4 Barczyk M. Carracedo S. Gullberg D. Integrins Cell Tissue Res. 339 1 2010 269 280 19693543 10.1007/s00441-009-0834-6 PMC2784866 ||| ref [12] = [12]; PMID 22654115; doi:10.1074/jbc.M112.353144; 12 Hamaia S.W. Pugh N. Raynal N. Nemoz B. Stone R. Gullberg D. Bihan D. Farndale R.W. Mapping of potent and specific binding motifs, GLOGEN and GVOGEA, for integrin alpha1beta1 using collagen toolkits; details: cited from earlier work
integrin α1β1 = tested on: integrin α1β1; set-up: method as in 3 sources, ref [4]; PMID 19693543; doi:10.1007/s00441-009-0834-6; 4 Barczyk M. Carracedo S. Gullberg D. Integrins Cell Tissue Res. 339 1 2010 269 280 19693543 10.1007/s00441-009-0834-6 PMC2784866 ||| ref [12] = [12]; PMID 22654115; doi:10.1074/jbc.M112.353144; 12 Hamaia S.W. Pugh N. Raynal N. Nemoz B. Stone R. Gullberg D. Bihan D. Farndale R.W. Mapping of potent and specific binding motifs, GLOGEN and GVOGEA, for integrin alpha1beta1 using collagen toolkits ||| ref not given; details: ref [12]; cited from earlier work
Text: The collagen-binding integrin family is complete, with four established members, α1β1, α2β1, α10β1 and α11β1. These are highly-conserved, heterodimeric receptors with an important structural feature in common, the presence of an I (inserted) domain which contains the metal ion-dependent adhesion site (MIDAS). The MIDAS is a constellation of electronegative residues at the distal surface of this 200-residue domain that, in the resting, non-ligated state, can co-ordinate a Mg^2 + ion. […] Many related motifs have now been identified using the Collagen Toolkits developed in this laboratory for the purpose. These are libraries of overlapping peptides of 27 amino acids of collagen primary sequence (guest sequence), flanked ... || Why would collagen II differ in this respect?

C2C12-α10β1 cells [2] = assay: xCELLigence real-time adhesion of C2C12-α10β1 cells; format: cell-based, mouse; details: 2.5 × 10^4 cells/well, 2 mM Mg^2 +, over 1 h, Fig. 3A
Experimental: Fig. 3 Binding of α10β1-transfected C2C12 cells to collagens and selected Toolkit peptides. Peptides or collagens were coated on ePlates as described, then cells were added in the presence of 2 mM Mg^2 + or EDTA, and Cell Index value was collected over 1 h. […] B: time courses are shown of adhesion to selected Toolkit peptides or GPP-10.
as §2
Briefly, C2C12 cells were seeded at 2.5 × 10^4 cells/well in an E-plate (Roche Applied Science) pre-coated with peptides as for SPBA, and CI was measured for up to 2 h.

| Molecule | Recognition by α10β1, summary (α10β1) | Adhesion of C2C12-α10β1 cells to short triple-helical peptides (C2C12-α10β1 cells [1]) | further results |
| --- | --- | --- | --- |
| GAOGER [integrin motif in collagens II, III, IV, VI, VII, IX] | weak ligand |  |  |
| GFOGEK [short triple-helical peptide; motif in collagens IV, VI, X] | now shown to bind α10β1 | less well |  |
| GKOGER [motif occurring only in collagen X and in the α2 chain of collagen I] | compromised in the context of α10β1; also recorded: α10-repellent |  |  |
| GLKGEN [short triple-helical peptide containing GLKGEN] |  | less well |  |
| GLOGEA [short triple-helical peptide; motif in collagens IV, XI, XXVII] |  | bound strongly |  |
| GMOGER [short triple-helical peptide containing GMOGER] |  | less well |  |
| GRSGET [short THP containing GRSGET, motif unique to collagen II] | not recognised by α10β1; also recorded: α10-repellent |  |  |
| GVOGEA [integrin motif in collagen II] | moderately good ligand for α10β1 |  | Affinity for α2β1 (α2β1; ref [12]): little affinity for α2β1; Affinity for integrin α1β1 (integrin α1β1): moderate ligand |
| collagen I: intact collagen I |  |  | Cell adhesion to collagens (Cell Index, endpoint) (C2C12-α10β1 cells [2]): bound quite well; Preferred ligand of α2β1 (α2β1; ref [4]): preferred ligand |
| collagen III: intact collagen III (protein) QQEAVEGGCSHLGQSYADRDVWKPEPCQICVCDSGSVLCDDIICDDQELDCPNPEIPFGECCAVCPQPPTAPTRPPNGQGPQGPKGDPGPPGIPGRNGDPGIPGQPGSPGSPGPPGICESCPTGPQNYSPQYDSYDVKSGVAVGGLAGYPGPAGPPGPPGPPGTSGHPGSPGSPGYQGPPGEPGQAGPSGPPGPPGAIGPSGPAGKDGESGRPGRPGERGLPGPPGIKGPAGIPGFPGMKGHRGFDGRNGEKGETGAPGLKGENGLPGENGAPGPMGPRGAPGERGRPGLPGAAGARGNDGARGSDGQPGPPGPPGTAGFPGSPGAKGEVGPAGSPGSNGAPGQRGEPGPQGHAGAQGPPGPPGINGSPGGKGEMGPAGIPGAPGLMGARGPPGPAGANGAPGLRGGAGEPGKNGAKGEPGPRGERGEAGIPGVPGAKGEDGKDGSPGEPGANGLPGAAGERGAPGFRGPAGPNGIPGEKGPAGERGAPGPAGPRGAAGEPGRDGVPGGPGMRGMPGSPGGPGSDGKPGPPGSQGESGRPGPPGPSGPRGQPGVMGFPGPKGNDGAPGKNGERGGPGGPGPQGPPGKNGETGPQGPPGPTGPGGDKGDTGPPGPQGLQGLPGTGGPPGENGKPGEPGPKGDAGAPGAPGGKGDAGAPGERGPPGLAGAPGLRGGAGPPGPEGGKGAAGPPGPPGAAGTPGLQGMPGERGGLGSPGPKGDKGEPGGPGADGVPGKDGPRGPTGPIGPPGPAGQPGDKGEGGAPGLPGIAGPRGSPGERGETGPPGPAGFPGAPGQNGEPGGKGERGAPGEKGEGGPPGVAGPPGGSGPAGPPGPQGVKGERGSPGGPGAAGFPGARGLPGPPGSNGNPGPPGPSGSPGKDGPPGPAGNTGAPGSPGVSGPKGDAGQPGEKGSPGAQGPPGAPGPLGIAGITGARGLAGPPGMPGPRGSPGPQGVKGESGKPGANGLSGERGPPGPQGLPGLAGTAGEPGRDGNPGSDGLPGRDGSPGGKGDRGENGSPGAPGAPGHPGPPGPVGPAGKSGDRGESGPAGPAGAPGPAGSRGAPGPQGPRGDKGETGERGAAGIKGHRGFPGNPGAPGSPGPAGQQGAIGSPGPAGPRGPVGPSGPPGKDGTSGHPGPIGPPGPRGNRGERGSEGSPGHPGQPGPPGPPGAPGPCCGGVGAAAIAGIGGEKAGGFAPYYG |  |  | Cell adhesion to collagens (Cell Index, endpoint) (C2C12-α10β1 cells [2]): bound quite well |
